How the values were obtained:
LOK = LOK (Homo sapiens (Human), UniProt O94804); assay: KINOMEscan; assay type: binding; conditions: 10000 nM, read-out: Percent Control
AAK1 = AAK1 (Homo sapiens (Human), UniProt Q2M2I8); assay: KINOMEscan; assay type: binding; conditions: AAK1, 10000 nM; read-out: Percent Control
PRKG2 = PRKG2 (Homo sapiens (Human), UniProt Q13237); assay: KINOMEscan; assay type: binding; conditions: PRKG2, 10000 nM; read-out: Percent Control
CDK4-cyclinD3 = CDK4-cyclinD3 (Homo sapiens (Human), UniProt P11802); assay: KINOMEscan; assay type: binding; conditions: CDK4-cyclinD3, 10000 nM; read-out: Percent Control
NDR1 = NDR1 (Homo sapiens (Human), UniProt Q15208); assay: KINOMEscan; assay type: binding; conditions: NDR1, 10000 nM; read-out: Percent Control
ROS1 = ROS1 (Homo sapiens (Human), UniProt P08922); assay: KINOMEscan; assay type: binding; conditions: ROS1, 10000 nM; read-out: Percent Control
EPHA5 = EPHA5 (Homo sapiens (Human), UniProt P54756); assay: KINOMEscan; assay type: binding; conditions: EPHA5, 10000 nM; read-out: Percent Control
MDA-MB-231 cells = assay: ultra-low adherent 3D-spheroid suspension cell viability (3D Cell Titer-Glo), 120 hours; assay type: cell-based; conditions: Homo sapiens
Method: For ultra-low adherent 3D-spheroid suspensions, MDA-MB-231 cells were plated in 384-well format in media containing 10% Matrigel® and allowed to form spheroids overnight. Cells were treated with indicated molecules from compound stock plates using a JANUS® Workstation pin tool for 120 hours. To measure cell viability, 3D Cell Titer-Glo® was added to wells for 15 minutes at room temperature and luminescence was measured on an EnVision™ 2104 Multilabel Plate Reader.

YSK4 = YSK4 (Homo sapiens (Human), UniProt Q56UN5); assay: KINOMEscan; assay type: binding; conditions: YSK4, 10000 nM; read-out: Percent Control
TIE1 = TIE1 (Homo sapiens (Human), UniProt P35590); assay: KINOMEscan; assay type: binding; conditions: TIE1, 10000 nM; read-out: Percent Control
DCLK1 = DCLK1 (Homo sapiens (Human), UniProt O15075); assay: Biochemical IC50 (Invitrogen) of off-targets
TNK1 = TNK1 (Homo sapiens (Human), UniProt Q13470); assay: Biochemical IC50 (Invitrogen) of off-targets
STK33 = STK33 (Homo sapiens (Human), UniProt Q9BYT3); assay: Biochemical IC50 (Invitrogen) of off-targets
PLK1 = PLK1 (Homo sapiens (Human), UniProt P53350); assay: Biochemical IC50 (Invitrogen) of off-targets
DCLK2 = DCLK2 (Homo sapiens (Human), UniProt Q8N568); assay: Biochemical IC50 (Invitrogen) of off-targets

Chain of NDR1 (Q15208 whole entry): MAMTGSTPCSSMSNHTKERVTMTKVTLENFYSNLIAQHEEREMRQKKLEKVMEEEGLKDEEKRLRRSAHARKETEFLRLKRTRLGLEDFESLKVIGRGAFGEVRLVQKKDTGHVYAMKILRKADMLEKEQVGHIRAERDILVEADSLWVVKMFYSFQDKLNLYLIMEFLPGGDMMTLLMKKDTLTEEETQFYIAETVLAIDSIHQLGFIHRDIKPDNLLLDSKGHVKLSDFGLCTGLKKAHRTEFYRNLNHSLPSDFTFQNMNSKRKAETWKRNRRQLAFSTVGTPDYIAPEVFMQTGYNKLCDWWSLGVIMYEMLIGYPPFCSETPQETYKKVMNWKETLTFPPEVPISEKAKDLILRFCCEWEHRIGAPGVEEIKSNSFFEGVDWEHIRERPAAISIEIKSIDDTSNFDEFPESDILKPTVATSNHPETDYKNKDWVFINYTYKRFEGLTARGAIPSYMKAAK
Chain of YSK4 (Q56UN5 whole entry): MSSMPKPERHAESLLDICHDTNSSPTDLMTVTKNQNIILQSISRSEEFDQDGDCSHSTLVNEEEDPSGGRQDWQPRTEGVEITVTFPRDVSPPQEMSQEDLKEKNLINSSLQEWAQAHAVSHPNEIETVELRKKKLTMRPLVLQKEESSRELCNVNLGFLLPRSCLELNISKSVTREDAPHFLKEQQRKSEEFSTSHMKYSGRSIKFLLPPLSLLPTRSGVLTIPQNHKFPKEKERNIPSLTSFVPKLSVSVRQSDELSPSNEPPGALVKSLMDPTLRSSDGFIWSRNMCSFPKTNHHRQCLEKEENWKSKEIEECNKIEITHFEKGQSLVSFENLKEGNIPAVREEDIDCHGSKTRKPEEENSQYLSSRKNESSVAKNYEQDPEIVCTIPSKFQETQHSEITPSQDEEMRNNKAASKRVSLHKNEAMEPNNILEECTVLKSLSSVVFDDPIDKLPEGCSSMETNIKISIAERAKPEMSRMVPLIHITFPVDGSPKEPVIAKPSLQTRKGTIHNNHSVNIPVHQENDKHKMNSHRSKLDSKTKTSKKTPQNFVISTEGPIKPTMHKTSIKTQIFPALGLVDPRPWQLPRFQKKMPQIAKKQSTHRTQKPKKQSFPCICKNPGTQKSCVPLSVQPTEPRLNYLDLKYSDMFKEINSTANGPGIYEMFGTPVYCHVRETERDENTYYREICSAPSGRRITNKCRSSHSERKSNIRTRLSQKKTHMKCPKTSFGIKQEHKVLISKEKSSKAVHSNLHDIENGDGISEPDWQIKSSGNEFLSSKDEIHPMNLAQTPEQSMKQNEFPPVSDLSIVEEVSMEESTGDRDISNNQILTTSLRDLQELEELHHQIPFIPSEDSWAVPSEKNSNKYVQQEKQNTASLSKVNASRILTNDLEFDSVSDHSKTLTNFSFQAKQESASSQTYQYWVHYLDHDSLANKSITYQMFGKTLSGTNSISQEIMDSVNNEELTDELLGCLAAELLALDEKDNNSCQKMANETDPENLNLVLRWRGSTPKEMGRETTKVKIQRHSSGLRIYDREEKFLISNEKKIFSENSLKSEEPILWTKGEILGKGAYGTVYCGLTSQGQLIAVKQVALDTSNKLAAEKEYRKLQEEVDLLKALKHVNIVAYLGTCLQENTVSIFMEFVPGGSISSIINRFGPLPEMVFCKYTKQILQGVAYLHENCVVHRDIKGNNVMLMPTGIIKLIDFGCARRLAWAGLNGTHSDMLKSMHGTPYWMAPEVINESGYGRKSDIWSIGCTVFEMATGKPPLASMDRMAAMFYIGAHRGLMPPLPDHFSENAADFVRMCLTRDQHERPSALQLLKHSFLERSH
Chain of LOK (O94804 whole entry): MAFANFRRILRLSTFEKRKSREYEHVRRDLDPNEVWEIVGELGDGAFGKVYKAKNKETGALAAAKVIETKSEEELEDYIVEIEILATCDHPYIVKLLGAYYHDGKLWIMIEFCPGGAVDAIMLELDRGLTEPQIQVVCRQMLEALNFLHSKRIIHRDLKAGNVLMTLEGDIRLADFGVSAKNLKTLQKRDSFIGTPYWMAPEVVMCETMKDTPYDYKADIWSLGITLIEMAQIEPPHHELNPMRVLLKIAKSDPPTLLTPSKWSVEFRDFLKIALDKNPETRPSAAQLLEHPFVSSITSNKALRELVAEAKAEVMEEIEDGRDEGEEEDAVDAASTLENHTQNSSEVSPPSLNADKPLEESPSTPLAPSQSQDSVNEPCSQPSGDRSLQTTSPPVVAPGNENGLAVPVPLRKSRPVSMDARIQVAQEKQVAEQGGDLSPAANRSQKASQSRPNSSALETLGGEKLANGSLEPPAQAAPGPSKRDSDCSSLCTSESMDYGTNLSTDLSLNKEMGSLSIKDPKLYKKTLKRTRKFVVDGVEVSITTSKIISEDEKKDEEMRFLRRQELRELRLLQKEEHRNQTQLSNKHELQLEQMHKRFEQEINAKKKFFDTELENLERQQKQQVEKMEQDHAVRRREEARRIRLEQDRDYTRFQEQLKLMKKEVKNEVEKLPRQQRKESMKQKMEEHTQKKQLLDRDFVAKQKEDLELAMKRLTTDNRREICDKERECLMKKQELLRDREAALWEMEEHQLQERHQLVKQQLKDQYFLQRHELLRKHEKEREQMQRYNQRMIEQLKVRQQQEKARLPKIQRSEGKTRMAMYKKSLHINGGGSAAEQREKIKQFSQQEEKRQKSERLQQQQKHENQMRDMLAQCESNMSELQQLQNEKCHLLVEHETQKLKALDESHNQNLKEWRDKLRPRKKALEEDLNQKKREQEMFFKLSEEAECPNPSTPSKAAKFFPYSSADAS
Chain of CDK4-cyclinD3 (P11802 whole entry): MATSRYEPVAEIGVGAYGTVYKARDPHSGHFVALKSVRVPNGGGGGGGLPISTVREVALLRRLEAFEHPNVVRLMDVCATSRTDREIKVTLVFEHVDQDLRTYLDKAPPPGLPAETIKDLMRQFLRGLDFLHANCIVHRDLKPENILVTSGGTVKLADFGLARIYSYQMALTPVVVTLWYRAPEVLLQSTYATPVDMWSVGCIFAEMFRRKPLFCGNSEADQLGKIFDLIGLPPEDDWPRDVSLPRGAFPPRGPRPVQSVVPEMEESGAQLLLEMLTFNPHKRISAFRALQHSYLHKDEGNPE
Chain of CDK4-cyclinD3 (P30281 whole entry partner): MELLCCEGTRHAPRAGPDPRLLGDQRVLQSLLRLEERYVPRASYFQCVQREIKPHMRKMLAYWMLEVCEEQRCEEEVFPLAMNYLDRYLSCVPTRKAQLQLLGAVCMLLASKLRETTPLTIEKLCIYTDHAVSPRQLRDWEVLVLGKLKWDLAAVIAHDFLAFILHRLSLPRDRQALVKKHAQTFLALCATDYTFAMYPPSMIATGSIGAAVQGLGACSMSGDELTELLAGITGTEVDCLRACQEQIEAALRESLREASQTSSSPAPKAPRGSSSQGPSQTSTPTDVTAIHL
Chain of EPHA5 (P54756 25-1037): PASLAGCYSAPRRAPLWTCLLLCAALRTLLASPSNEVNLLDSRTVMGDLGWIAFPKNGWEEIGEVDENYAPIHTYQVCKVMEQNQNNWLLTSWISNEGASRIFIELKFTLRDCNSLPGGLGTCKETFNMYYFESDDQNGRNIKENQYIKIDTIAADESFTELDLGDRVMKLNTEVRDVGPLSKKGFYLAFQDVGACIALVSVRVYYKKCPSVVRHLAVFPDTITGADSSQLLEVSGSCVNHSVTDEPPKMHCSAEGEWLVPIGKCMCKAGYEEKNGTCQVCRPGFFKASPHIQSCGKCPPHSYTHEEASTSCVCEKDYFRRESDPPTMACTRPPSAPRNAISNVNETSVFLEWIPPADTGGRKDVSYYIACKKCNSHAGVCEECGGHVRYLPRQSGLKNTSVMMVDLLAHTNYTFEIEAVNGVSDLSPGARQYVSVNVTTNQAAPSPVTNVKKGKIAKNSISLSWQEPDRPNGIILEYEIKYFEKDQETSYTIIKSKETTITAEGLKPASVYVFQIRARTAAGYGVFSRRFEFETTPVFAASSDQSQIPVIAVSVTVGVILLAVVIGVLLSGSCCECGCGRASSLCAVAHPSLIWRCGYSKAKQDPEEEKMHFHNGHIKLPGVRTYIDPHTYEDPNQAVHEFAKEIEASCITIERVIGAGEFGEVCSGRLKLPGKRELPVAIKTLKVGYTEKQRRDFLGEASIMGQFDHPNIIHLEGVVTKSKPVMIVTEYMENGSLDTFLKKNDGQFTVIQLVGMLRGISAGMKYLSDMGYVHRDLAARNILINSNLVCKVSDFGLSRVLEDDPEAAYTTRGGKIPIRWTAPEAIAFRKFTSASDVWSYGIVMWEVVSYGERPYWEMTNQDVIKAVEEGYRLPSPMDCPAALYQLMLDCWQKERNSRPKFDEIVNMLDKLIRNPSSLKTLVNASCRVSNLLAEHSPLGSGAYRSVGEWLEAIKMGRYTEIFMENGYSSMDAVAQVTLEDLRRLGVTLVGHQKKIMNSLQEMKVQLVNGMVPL
Chain of STK33 (Q9BYT3 whole entry): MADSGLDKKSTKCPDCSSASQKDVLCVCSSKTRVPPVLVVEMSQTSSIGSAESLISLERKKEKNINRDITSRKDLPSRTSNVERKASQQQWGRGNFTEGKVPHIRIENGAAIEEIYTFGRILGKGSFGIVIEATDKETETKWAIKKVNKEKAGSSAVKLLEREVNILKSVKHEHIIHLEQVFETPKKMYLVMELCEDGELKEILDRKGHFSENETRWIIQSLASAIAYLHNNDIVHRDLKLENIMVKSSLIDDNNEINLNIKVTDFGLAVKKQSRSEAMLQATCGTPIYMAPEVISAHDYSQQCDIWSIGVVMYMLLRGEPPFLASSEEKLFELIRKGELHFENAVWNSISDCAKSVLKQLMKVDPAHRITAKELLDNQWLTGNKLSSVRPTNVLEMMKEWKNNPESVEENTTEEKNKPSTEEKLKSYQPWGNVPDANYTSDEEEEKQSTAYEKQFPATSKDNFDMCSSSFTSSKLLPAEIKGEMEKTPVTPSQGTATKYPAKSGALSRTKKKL

In the case of `COc1cc(N2CCC(N3CCN(C)CC3)CC2)ccc1Nc1ncc2c(n1)N(C)c1sc(C)nc1C(=O)N2` [Compound 3, 6-((2-methoxy-4-(4-(4-methylpiperazin-1-yl)piperidin-1-yl)phenyl)amino)-2,4-dimethyl-4,9-dihydro-10H-pyrimido[5,4-b]thiazolo[5,4-e][1,4]diazepin-10-one], the remaining binding at 10 µM (LOK) is reported as 84%, the remaining binding at 10 µM (AAK1) is reported as 48% and the remaining binding at 10 µM (PRKG2) is reported as 73%. For the same molecule, the remaining binding at 10 µM (CDK4-cyclinD3) was 95%, the remaining binding at 10 µM (NDR1) was 97% and the remaining binding at 10 µM (ROS1) was 74%. It also gave a remaining binding at 10 µM (EPHA5) of 65%, an IC50 (MDA-MB-231 cells) of 6.8 µM and a remaining binding at 10 µM (YSK4) of 100%. For the same molecule, the remaining binding at 10 µM (TIE1) was 80%.
`COc1cc(N2CCC(N3CCN(C)CC3)CC2)ccc1Nc1ncc2c(n1)N(C)c1sc(C)nc1C(=O)N2C` [Compound 5, 6-((2-methoxy-4-(4-(4-methylpiperazin-1-yl)piperidin-1-yl)phenyl)amino)-2,4,9-trimethyl-4,9-dihydro-10H-pyrimido[5,4-b]thiazolo[5,4-e][1,4]diazepin-10-one] was tested, and the remaining binding at 10 µM (LOK) was 99%, the remaining binding at 10 µM (PRKG2) was 100% and the IC50 (DCLK1) was 6.5 µM. For the same molecule, the remaining binding at 10 µM (CDK4-cyclinD3) was 100%, the remaining binding at 10 µM (NDR1) was 98% and the remaining binding at 10 µM (ROS1) was 75%. It also gave a remaining binding at 10 µM (EPHA5) of 95%, an IC50 (TNK1) of 3.17 µM and an IC50 (STK33) of 2.13 µM. The remaining binding at 10 µM (YSK4) was 93%, the remaining binding at 10 µM (TIE1) was 96% and the IC50 (PLK1) was 8.28 µM. The IC50 (DCLK2) was 3.12 µM.
